Earlier results, collected in PMC7395068, “The evolution of strategies to minimise the risk of human drug-induced liver injury (DILI) in drug discovery and development” (Archives of Toxicology, 2020).
Structures can show the parent of a compound that is named as a salt. Where two headings read alike, the source gives them in different places.

Experiments:
[1] = cited from earlier work
human hepatocytes = details: cited from earlier work
[2] = cited from earlier work; remark: listed apart in the source
[3] = human hepatocyte imaging, ref Xu 2008
[4] = assignment in Xu 2008, ref Xu 2008

Compound | Structural based (HCI), In vitro Assay (human hepatocytes; [3]) | Structural based (HCI) (human hepatocytes; In vitro Assay, ref Xu 2008) | In vivo DILI ([2]; ref Xu 2008) | also measured
N[C@@H]1C[C@H]1c1ccccc1 (racemic) [tranylcypromine] | -VE |  |  | DILI +VE (5-8), DILI -VE (-4) ([1]; binary in vivo DILI call given beside the severity category, ref Chen 2016): +VE; DILI severity category ([1]; human DILI concern category (LTKB DILIrank), ref Chen 2016): vLess-DILI-Concern; In vivo DILI [2, 4]: -VE
Cl[C@H]1[C@H](Cl)[C@@H](Cl)[C@@H](Cl)[C@H](Cl)[C@H]1Cl [1,2,3,4,5,6-hexachlorocyclohexane] |  |  |  | Structural based (HCI) (human hepatocytes): -VE; In vivo DILI ([2]; in vivo): +VE
CC(=O)c1ccc(S(=O)(=O)NC(=O)NC2CCCCC2)cc1 [acetohexamide] |  | +VE | +VE | 
CC(=O)OCC[N+](C)(C)C [acetylcholine chloride] |  | -VE | -VE | DILI +VE (5-8), DILI -VE (-4) ([1]; ref Chen 2016): -VE; DILI severity category ([1]; ref Chen 2016): vNo-DILI-Concern
N[C@H](C(=O)O)[C@@H]1CC(Cl)=NO1 [acivicin] |  | -VE | -VE | 
O.O=C1NC(=O)C(=O)C(=O)N1 [alloxan hydrate] |  | -VE | -VE | In vivo DILI ([2]; ref O'Brien 2006): +VE
C=C1[C@@H]2CC[C@H]3[C@]4(C)C[C@H](O[C@@H]5O[C@H](CO)[C@@H](OS(=O)(=O)O)[C@H](OS(=O)(=O)O)[C@H]5OC(=O)CC(C)C)C[C@@H](C(=O)O)[C@H]4CC[C@]3(C2)[C@H]1O [atractyloside] |  | +VE | +VE | 
C[C@H]1C[C@H]2[C@@H]3CCC4=CC(=O)C=C[C@]4(C)[C@@]3(Cl)[C@@H](O)C[C@]2(C)[C@@]1(O)C(=O)CO [beclomethasone] |  |  |  | Structural based (HCI) (human hepatocytes): -VE; In vivo DILI ([2]; in vivo): -VE
C[C@H]1C[C@H]2[C@@H]3CCC4=CC(=O)C=C[C@]4(C)[C@@]3(F)[C@@H](O)C[C@]2(C)[C@@]1(O)C(=O)CO [betamethasone] |  | -VE | -VE | 
CS(=O)(=O)OCCCCOS(C)(=O)=O [busulphan] |  | +VE | +VE | 
[Cl][Cd][Cl] [cadmium chloride] |  | +VE | +VE | 
COC(=O)Nc1nc2ccccc2[nH]1 [carbendazim] |  |  |  | Structural based (HCI) (human hepatocytes): -VE; In vivo DILI ([2]; in vivo): +VE
CC1(C)[C@@H](OC(=O)CCC(=O)[O-])CC[C@]2(C)[C@H]3C(=O)C=C4[C@@H]5C[C@@](C)(C(=O)[O-])CC[C@]5(C)CC[C@@]4(C)[C@]3(C)CC[C@@H]12.[Na+].[Na+] [carbenoxolone disodium] |  |  |  | Structural based (HCI) (human hepatocytes): -VE; In vivo DILI ([2]; in vivo): -VE
CN/C(=N/CCSCc1nc[nH]c1C)NC#N [cimetidine] |  | -VE | -VE | DILI +VE (5-8), DILI -VE (-4) ([1]; ref Chen 2016): +VE; DILI severity category ([1]; ref Chen 2016): vLess-DILI-Concern; In vivo DILI ([2]; […]): +VE
OCCN1CCN(CC/C=C2/c3ccccc3Sc3ccc(C(F)(F)F)cc32)CC1 [cis(z)-flupentixol] |  |  |  | Structural based (HCI) (human hepatocytes): -VE; In vivo DILI ([2]; in vivo): -VE
CN(C)CCCC1(c2ccc(F)cc2)OCc2cc(C#N)ccc21 (centres unmarked) [citalopram] |  |  |  | DILI +VE (5-8), DILI -VE (-4) ([1]; in vivo): +VE; DILI severity category ([1]; in vivo): vLess-DILI-Concern; Structural based (HCI) (human hepatocytes): -VE; In vivo DILI ([2]; in vivo): -VE
Nc1nc(Cl)nc2c1ncn2[C@H]1C[C@H](O)[C@@H](CO)O1 [cladribine] |  | -VE | -VE | DILI +VE (5-8), DILI -VE (-4) ([1]; ref Chen 2016): -VE; DILI severity category ([1]; ref Chen 2016): Ambiguous DILI-concern
NC1CCN(c2c(F)cc3c(=O)c(C(=O)O)cn(C4CC4)c3c2Cl)C1 (centres unmarked) [clinafloxacin] |  | -VE | -VE | 
CN1CCC(=C2c3ccccc3C=Cc3ccccc32)CC1 [cyproheptadine] |  | +VE | +VE | DILI +VE (5-8), DILI -VE (-4) ([1]; ref Chen 2016): +VE; DILI severity category ([1]; ref Chen 2016): vLess-DILI-Concern
N[C@H]1C(O)O[C@H](CO)[C@H](O)[C@@H]1O (stereo partly drawn) [d-galactosamine] |  |  |  | Structural based (HCI) (human hepatocytes): -VE; In vivo DILI ([2]; in vivo): +VE
CC(C)N(CCC(C(N)=O)(c1ccccc1)c1ccccn1)C(C)C (centres unmarked) [disopyramide phosphate] |  | -VE | +VE | 
CCO.C[C@H]1c2cccc(O)c2C(O)=C2C(=O)[C@]3(O)C(O)=C(C(N)=O)C(=O)[C@@H](N(C)C)[C@@H]3[C@@H](O)[C@@H]21.C[C@H]1c2cccc(O)c2C(O)=C2C(=O)[C@]3(O)C(O)=C(C(N)=O)C(=O)[C@@H](N(C)C)[C@@H]3[C@@H](O)[C@@H]21.Cl.Cl.O [doxycycline hyclate] |  |  |  | Structural based (HCI) (human hepatocytes): +VE; In vivo DILI ([2]; in vivo): +VE
C[C@@H](CO)NC(=O)[C@@H]1C=C2c3cccc4[nH]cc(c34)C[C@H]2N(C)C1 [ergonovine maleate] |  | -VE | -VE | 
C[C@]12CC[C@@H]3c4ccc(O)cc4CC[C@H]3[C@@H]1CC[C@@H]2O[C@@H]1O[C@H](C(=O)O)[C@@H](O)[C@H](O)[C@H]1O [estradiol 17b glucuronide] |  |  |  | Structural based (HCI) (human hepatocytes): -VE; In vivo DILI ([2]; in vivo): +VE
N#CC(C#N)=NNc1ccc(OC(F)(F)F)cc1 [fccp] |  | +VE | +VE | In vivo DILI ([2]; ref O'Brien 2006): +VE
CC(C(=O)O)c1cccc(Oc2ccccc2)c1 (centres unmarked) [fenoprofen sodium] |  | +VE | +VE | 
CC(Cc1ccc(O)cc1)NCC(O)c1cc(O)cc(O)c1 (centres unmarked) [fenoterol hbr] |  |  |  | Structural based (HCI) (human hepatocytes): -VE; In vivo DILI ([2]; in vivo): +VE

Compound | Structural based (HCI), In vitro Assay (human hepatocytes; [3]) | Structural based (HCI) (human hepatocytes; In vitro Assay, ref Xu 2008) | In vivo DILI ([2]; ref Xu 2008) | also measured
O=c1[nH]c(=O)n([C@H]2C[C@H](O)[C@@H](CO)O2)cc1F [floxuridine] |  | -VE | +VE | In vivo DILI ([2]; […]): +VE
O.O=[N+]([O-])[O][Ga]([O][N+](=O)[O-])[O][N+](=O)[O-] [gallium nitrate hydrate] | -VE |  |  | In vivo DILI [2, 4]: -VE
COc1c(N2CCNC(C)C2)c(F)cc2c(=O)c(C(=O)O)cn(C3CC3)c12 (centres unmarked) [gatifloxacin] | -VE |  |  | In vivo DILI [2, 4]: -VE
O=c1[nH]c(=O)n([C@H]2C[C@H](O)[C@@H](CO)O2)cc1I [idoxuridine] | -VE |  |  | In vivo DILI [2, 4]: +VE
CCSCC[C@H](N)C(=O)O [l-ethionine] | -VE |  |  | In vivo DILI [2, 4]: +VE
COC(=O)Nc1nc2ccc(C(=O)c3ccccc3)cc2[nH]1 [mebendazole] |  | +VE |  | 
CC(=O)O[C@]1(C(C)=O)CC[C@H]2[C@@H]3C[C@H](C)C4=CC(=O)CC[C@]4(C)[C@H]3CC[C@@]21C [medroxyprogesterone acetate] | -VE |  |  | In vivo DILI [2, 4]: -VE
CN1CCCCC1CCN1c2ccccc2Sc2ccc([S+](C)[O-])cc21 (centres unmarked) [mesoridazine besylate] | -VE |  |  | In vivo DILI [2, 4]: +VE
COc1cccc(OC)c1C(=O)N[C@@H]1C(=O)N2[C@@H]1SC(C)(C)[C@@H]2C(=O)O [methicillin sodium] | -VE |  |  | 
COc1ccc(OC)c(C(O)C(C)N)c1 (centres unmarked) [methoxamine] | -VE |  |  | In vivo DILI [2, 4]: -VE
CC[C@@H](CO)NC(=O)[C@@H]1C=C2c3cccc4[nH]cc(c34)C[C@H]2N(C)C1 [methylergonovine maleate] | -VE |  |  | 
C[C@H]1C(=O)O[C@@H]2CCN3CC=C(COC(=O)[C@](C)(O)[C@]1(C)O)[C@H]23 [monocrotaline] |  |  |  | Structural based (HCI), In vitro Assay (human hepatocytes): -VE; In vivo DILI ([2]; in vivo): +VE
C=C1CC[C@@]2(O)[C@H]3Cc4ccc(O)c5c4[C@@]2(CCN3CC2CC2)[C@H]1O5 [nalmefene] | -VE |  |  | In vivo DILI [2, 4]: -VE
CCCOc1ccc2[nH]c(NC(=O)OC)nc2c1 [oxybendazole] | -VE |  |  | In vivo DILI [2, 4]: +VE
NCCC(O)(P(=O)(O)O)P(=O)(O)O [pamidronate] |  | -VE |  | 
NC[C@@H]1O[C@H](O[C@H]2[C@@H](O)[C@H](O[C@@H]3[C@@H](O)[C@H](N)C[C@H](N)[C@H]3O[C@H]3O[C@H](CO)[C@@H](O)[C@H](O)[C@H]3N)O[C@@H]2CO)[C@H](N)[C@@H](O)[C@@H]1O [paromomycin] | -VE |  |  | 
CC1(C)S[C@@H]2[C@H](NC(=O)Cc3ccccc3)C(=O)N2[C@H]1C(=O)O [penicillin g] |  | -VE |  | 
CCOc1ccc(NC(C)=O)cc1 [phenacetin] |  | +VE |  | 
C[C@]12C=CC(=O)C=C1CC[C@@H]1[C@@H]2C(=O)C[C@@]2(C)[C@H]1CC[C@]2(O)C(=O)CO [prednisone] |  | -VE |  | 
CN(C)CCCN1c2ccccc2Sc2ccccc21 [promazine] | -VE |  |  | In vivo DILI [2, 4]: -VE
COc1ccc(C[C@H](N)C(=O)N[C@H]2[C@@H](O)[C@H](n3cnc4c(N(C)C)ncnc43)O[C@@H]2CO)cc1 [puromycin] | +VE |  |  | In vivo DILI [2, 4]: +VE
CC1=C(/C=C/C(C)=C/C=C/C(C)=C/C(=O)O)C(C)(C)CCC1 [retinoic acid] |  | +VE | +VE | In vivo DILI ([2]; […]): +VE
CCCCNc1ccc(C(=O)OCCN(C)C)cc1 [tetracaine] | -VE |  |  | In vivo DILI [2, 4]: -VE
CN1CCN(CC/C=C2/c3ccccc3Sc3ccc(S(=O)(=O)N(C)C)cc32)CC1 [thiothixene] |  | -VE |  | 
CC(C)(C)NC[C@H](O)COc1nsnc1N1CCOCC1 [timolol maleate] | -VE |  |  | In vivo DILI [2, 4]: +VE
Nc1ncnc2c1ncn2[C@@H]1O[C@H](CO)[C@@H](O)[C@@H]1O [vidarabine] |  | -VE |  | 
